The Kinase Knowledgebase extract (Sharma et al. 2016)

These compounds were tested against EGFR (UniProt P00533).
Chain of EGFR (P00533 whole entry, looked up): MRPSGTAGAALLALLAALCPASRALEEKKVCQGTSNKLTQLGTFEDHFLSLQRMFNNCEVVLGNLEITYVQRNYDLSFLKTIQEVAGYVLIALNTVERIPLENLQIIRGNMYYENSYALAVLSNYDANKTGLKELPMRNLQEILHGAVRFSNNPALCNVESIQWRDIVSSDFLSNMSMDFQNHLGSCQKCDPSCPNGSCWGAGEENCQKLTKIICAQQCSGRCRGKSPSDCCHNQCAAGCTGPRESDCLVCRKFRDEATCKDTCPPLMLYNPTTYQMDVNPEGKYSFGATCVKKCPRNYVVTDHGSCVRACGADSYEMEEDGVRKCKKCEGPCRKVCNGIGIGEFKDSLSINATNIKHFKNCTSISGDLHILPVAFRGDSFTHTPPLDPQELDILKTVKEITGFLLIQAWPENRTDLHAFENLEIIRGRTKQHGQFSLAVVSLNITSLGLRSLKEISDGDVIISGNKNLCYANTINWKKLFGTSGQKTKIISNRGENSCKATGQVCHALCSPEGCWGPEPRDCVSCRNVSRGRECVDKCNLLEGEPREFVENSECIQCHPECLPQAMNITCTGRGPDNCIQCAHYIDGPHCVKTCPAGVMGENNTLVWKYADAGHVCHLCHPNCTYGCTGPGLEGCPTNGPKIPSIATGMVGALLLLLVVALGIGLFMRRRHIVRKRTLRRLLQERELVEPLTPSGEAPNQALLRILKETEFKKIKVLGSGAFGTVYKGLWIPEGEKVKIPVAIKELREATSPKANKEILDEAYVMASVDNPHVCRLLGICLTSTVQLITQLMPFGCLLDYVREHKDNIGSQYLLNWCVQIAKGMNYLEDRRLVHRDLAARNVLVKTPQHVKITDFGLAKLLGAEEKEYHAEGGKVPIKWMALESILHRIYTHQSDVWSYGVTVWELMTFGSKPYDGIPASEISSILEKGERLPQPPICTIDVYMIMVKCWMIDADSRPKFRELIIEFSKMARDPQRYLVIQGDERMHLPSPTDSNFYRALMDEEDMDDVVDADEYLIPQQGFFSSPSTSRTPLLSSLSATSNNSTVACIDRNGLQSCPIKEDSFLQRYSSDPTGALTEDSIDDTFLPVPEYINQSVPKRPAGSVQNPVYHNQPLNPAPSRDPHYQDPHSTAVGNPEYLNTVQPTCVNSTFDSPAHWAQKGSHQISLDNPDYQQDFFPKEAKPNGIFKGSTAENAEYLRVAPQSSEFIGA

SMILES	IC50
C=CCCCCN1CCOC(COc2cc3ncnc(Nc4ccc(Cl)c(Cl)c4)c3cc2OC)C1 (centres undefined)	< 50 nM
COc1cc2c(Nc3ccc(F)c(F)c3)ncnc2cc1O[C@@H]1CO[C@@H]2[C@H]1OC[C@H]2F	< 50 nM
COc1cc2c(Nc3ccc(Cl)c(Cl)c3)ncnc2cc1OCC1CN(C(=O)c2c(F)ccc(F)c2F)CCO1 (centres undefined)	< 50 nM
COc1cc2c(Nc3ccc(Cl)cc3Cl)ncnc2cc1O[C@@H]1CO[C@@H]2[C@H]1OC[C@H]2F	< 50 nM
COc1cc2c(Nc3ccc(F)c(Cl)c3F)ncnc2cc1OC[C@@H]1CN2CCC[C@H]2CO1	< 50 nM
COc1cc2c(Nc3ccc(Cl)c(Cl)c3)ncnc2cc1OCc1csc2ccc(Cl)cc12	50 to 1000 nM
COc1cc2c(Nc3ccc(Br)cc3)ncnc2cc1O[C@@H]1CO[C@@H]2[C@H]1OC[C@H]2F	< 50 nM
COc1cc2c(Nc3ccc(Br)c(Cl)c3)ncnc2cc1O[C@H]1CO[C@H]2[C@@H]1OC[C@@H]2OC(F)F	< 50 nM
COc1cc2c(Nc3ccc(Cl)c(Cl)c3)ncnc2cc1OCCN1CCOCC1	< 50 nM
COc1cc2c(Nc3ccc(Br)c(Cl)c3)ncnc2cc1O[C@@H]1CO[C@@H]2[C@H]1OC[C@@H]2O	< 50 nM
COc1cc2c(Nc3ccc(Cl)c(Cl)c3Cl)ncnc2cc1OCC1CN(C)CCO1 (centres undefined)	< 50 nM
COc1cc2c(Nc3ccc(Cl)c(Cl)c3F)ncnc2cc1OCC1CN(C)CCO1 (centres undefined)	< 50 nM
COc1cc2c(Nc3ccc(Br)c(Cl)c3)ncnc2cc1O[C@H]1CO[C@H]2[C@@H]1OC[C@@]21COC(C)(C)O1	< 50 nM
COc1cc2c(Nc3cccc(Cl)c3C)ncnc2cc1O[C@@H]1CO[C@@H]2[C@H]1OC[C@H]2F	< 50 nM
COc1cc2c(Nc3ccc(Cl)cc3)ncnc2cc1O[C@@H]1CO[C@@H]2[C@H]1OC[C@H]2F	< 50 nM
COc1cc2c(Nc3ccc(Br)c(Cl)c3Cl)ncnc2cc1OCC1CN(C)CCO1 (centres undefined)	< 50 nM
COc1cc2c(Nc3ccc(Cl)c(Cl)c3)ncnc2cc1OCCN1CCCCC1	< 50 nM
COc1cc2c(Nc3cc(Cl)c(Cl)cc3F)ncnc2cc1O[C@H]1CO[C@H]2[C@@H]1OC[C@@H]2OC	< 50 nM
COc1cc2c(Nc3cccc(Cl)c3C)ncnc2cc1O[C@H]1CO[C@H]2[C@@H]1OC[C@@H]2OC	< 50 nM
COc1cc2c(Nc3ccc(Br)c(Cl)c3)ncnc2cc1O[C@H]1CO[C@@H]2[C@H]1OC[C@@H]2NC(C)=O	< 50 nM
COc1cc2c(Nc3ccc(Cl)c(Cl)c3)ncnc2cc1OCC1CC1	< 50 nM
CCN1CCCC(c2nc(COc3cc4ncnc(Nc5ccc(Cl)c(Cl)c5)c4cc3OC)no2)C1 (centres undefined)	< 50 nM
C=CCCCCCCN1CCOC(COc2cc3ncnc(Nc4ccc(Cl)c(Cl)c4)c3cc2OC)C1 (centres undefined)	< 50 nM

SMILES	IC50
COc1cc2c(Nc3ccc(Cl)c(Cl)c3)ncnc2cc1OC[C@@H]1CN2CCC[C@H]2CO1	< 50 nM
COc1cc2c(Nc3ccc(Br)c(Cl)c3F)ncnc2cc1OC[C@@H]1CN(C)CC(=O)N1C	< 50 nM
COc1cc2c(Nc3ccc(Cl)c(Cl)c3)ncnc2cc1OCc1csc(N2CCN(C)CC2)n1	< 50 nM
COc1cc2c(Nc3cc(Cl)ccc3Cl)ncnc2cc1O[C@@H]1CO[C@@H]2[C@H]1OC[C@H]2F	< 50 nM
COc1cc2c(Nc3cc(F)c(F)cc3F)ncnc2cc1O[C@@H]1CO[C@@H]2[C@H]1OC[C@H]2F	< 50 nM
COc1cc2c(Nc3ccc(Cl)c(Cl)c3)ncnc2cc1OCCNC1CC2CCC(C1)N2C (centres undefined)	< 50 nM
COc1cc2c(Nc3ccc(Cl)c(Cl)c3)ncnc2cc1OCCC1CN(C)C(C)(C)CO1 (centres undefined)	< 50 nM
COc1cc2c(Nc3ccc(Cl)c(Cl)c3F)ncnc2cc1OC[C@@H]1CN2CCOC[C@H]2CO1	< 50 nM
COc1cc2c(Nc3cccc(F)c3F)ncnc2cc1O[C@@H]1CO[C@@H]2[C@H]1OC[C@H]2F	< 50 nM
COc1cc2c(Nc3ccc(Cl)c(Cl)c3)ncnc2cc1OCc1noc(C2CCCN2C)n1 (centres undefined)	< 50 nM
COc1cc2c(Nc3ccc(Cl)c(Cl)c3)ncnc2cc1OCC1CN(C/C=C/Br)CCO1 (centres undefined)	< 50 nM
COc1cc2c(Nc3ccc(Br)c(Cl)c3F)ncnc2cc1O[C@@H]1CO[C@@H]2[C@H]1OC[C@H]2F	< 50 nM
COc1cc2c(Nc3cc(Cl)c(Cl)cc3F)ncnc2cc1OC[C@@H]1CO[C@H]2[C@@H]1OC[C@@H]2O	< 50 nM
COc1cc2c(Nc3ccc(Cl)c(Cl)c3)ncnc2cc1OCc1nc(-c2ccncc2)cs1	< 50 nM
COc1cc2c(Nc3ccc(F)c(C(F)(F)F)c3)ncnc2cc1O[C@@H]1CO[C@@H]2[C@H]1OC[C@H]2F	< 50 nM
COc1cc2c(Nc3ccc(Br)c(Cl)c3)ncnc2cc1O[C@@H]1CO[C@@H]2[C@H]1OC[C@@H]2OS(C)(=O)=O	< 50 nM
COc1cc2c(Nc3ccc(F)c(F)c3F)ncnc2cc1O[C@@H]1CO[C@@H]2[C@H]1OC[C@H]2F	< 50 nM
COc1cc2c(Nc3ccc(Br)c(Cl)c3)ncnc2cc1OCC1CN(C)CCO1 (centres undefined)	< 50 nM
COc1cc2c(Nc3ccc(Cl)c(Cl)c3)ncnc2cc1OCc1csc(CN2CCCC2)n1	< 50 nM
COc1cc2c(Nc3ccc(Cl)c(Cl)c3)ncnc2cc1OCC1CCC1	< 50 nM
COc1cc2c(Nc3cc(C(F)(F)F)ccc3Cl)ncnc2cc1O[C@@H]1CO[C@@H]2[C@H]1OC[C@H]2F	< 50 nM
CCN1CCN(c2noc(COc3cc4ncnc(Nc5ccc(Cl)c(Cl)c5)c4cc3OC)n2)CC1	< 50 nM
COc1cc2c(Nc3ccc(N4CCN(C)CC4)c(F)c3)ncnc2cc1O[C@H]1CO[C@@H]2[C@H]1OC[C@@H]2F	< 50 nM

SMILES	IC50
COc1cc2c(Nc3cc(Cl)c(Br)cc3F)ncnc2cc1O[C@@H]1CO[C@@H]2[C@H]1OC[C@H]2F	< 50 nM
COc1cc2c(Nc3cc(Cl)c(Cl)cc3F)ncnc2cc1OC[C@H]1CN2CCOC[C@H]2CO1	< 50 nM
COc1cc2c(Nc3cc(Cl)c(Br)cc3F)ncnc2cc1OCC1CN(C)CCO1 (centres undefined)	< 50 nM
COc1cc2c(Nc3ccc(Cl)c(Cl)c3)ncnc2cc1OCC1CN(S(=O)(=O)c2ccc(C)cc2)CCO1 (centres undefined)	< 50 nM
COc1cc2c(Nc3ccc(Cl)c(Cl)c3)ncnc2cc1OC[C@@H]1O[C@@H](OC)[C@@H](O)[C@@H](O)[C@H]1O	< 50 nM
COc1cc2c(Nc3ccc(Cl)c(Cl)c3)ncnc2cc1OCC1CN(S(C)(=O)=O)CCO1 (centres undefined)	< 50 nM
COc1cc2c(Nc3ccc(Cl)c(Cl)c3)ncnc2cc1OCC1COCCN1C (centres undefined)	< 50 nM
CCC#CCN1CCOC(COc2cc3ncnc(Nc4ccc(Cl)c(Cl)c4)c3cc2OC)C1 (centres undefined)	< 50 nM
COc1cc2c(Nc3ccc(Br)c(Cl)c3)ncnc2cc1O[C@H]1CO[C@@H]2[C@H]1OC[C@@H]2SC	< 50 nM
CCC(=O)N1CCOC(COc2cc3ncnc(Nc4ccc(Cl)c(Cl)c4)c3cc2OC)C1 (centres undefined)	< 50 nM
COc1cc2c(Nc3ccc(Cl)c(Cl)c3)ncnc2cc1OCC1CN(CCC2OCCO2)CCO1 (centres undefined)	< 50 nM
COc1cc2c(Nc3ccc(Cl)c(Cl)c3)ncnc2cc1OCC1CN(C(=O)c2c(C)noc2C)CCO1 (centres undefined)	< 50 nM
COc1cc2c(Nc3ccc(Cl)c(Cl)c3)ncnc2cc1OCCC1CN(C(=O)OC(C)(C)C)C(C)(C)CO1 (centres undefined)	< 50 nM
COc1cc2c(Nc3ccc(Cl)c(Cl)c3)ncnc2cc1OCc1csc([C@@H]2CSCN2)n1	< 50 nM
COc1cc2c(Nc3ccc(F)cc3C(F)(F)F)ncnc2cc1O[C@@H]1CO[C@@H]2[C@H]1OC[C@H]2F	< 50 nM
COc1ccc(OC)c(Nc2ncnc3cc(O[C@@H]4CO[C@@H]5[C@H]4OC[C@H]5F)c(OC)cc23)c1	< 50 nM
COc1cc2c(Nc3ccc(Cl)c(Cl)c3)ncnc2cc1OCC1CN(C(=O)c2cccc3ccccc23)CCO1 (centres undefined)	< 50 nM
COc1cc2c(Nc3cc(Cl)c(Cl)cc3F)ncnc2cc1OC[C@@H]1CN2CCOC[C@H]2CO1	< 50 nM
COc1cc2c(Nc3ccc(Cl)c(Cl)c3)ncnc2cc1OCC1CN(CCF)CCO1 (centres undefined)	< 50 nM
COc1cc2c(Nc3cc(Cl)c(Br)cc3F)ncnc2cc1OC[C@@H]1CN2CCC[C@H]2CO1	< 50 nM
COc1cc2c(Nc3ccc(Cl)c(Cl)c3)ncnc2cc1OC[C@@H]1CN2CCC[C@@H]2CO1	< 50 nM
COc1cc2c(Nc3cc(F)c(Br)c(F)c3)ncnc2cc1OCC1CN(C)CCO1 (centres undefined)	< 50 nM
COc1cc2c(Nc3ccc(Cl)c(Cl)c3)ncnc2cc1OCc1nc(-c2ccccn2)cs1	< 50 nM

SMILES	IC50
COc1cc2c(Nc3ccc(Br)c(Cl)c3)ncnc2cc1O[C@@H]1CO[C@@H]2[C@H]1OC[C@H]2NS(C)(=O)=O	< 50 nM
COc1cc2c(Nc3ccc(Cl)c(Cl)c3F)ncnc2cc1OC[C@@H]1CN2CCCC[C@@H]2C(=O)N1	< 50 nM
COc1cc2c(Nc3ccc(Br)c(Cl)c3F)ncnc2cc1O[C@H]1CO[C@H]2[C@@H]1OC[C@@H]2OC	< 50 nM
COc1cc2c(Nc3ccc(Cl)c(Cl)c3)ncnc2cc1OCC1CN(CCc2ccccc2)CCO1 (centres undefined)	< 50 nM
COc1cc2c(Nc3ccc(F)c(Cl)c3F)ncnc2cc1OC[C@H]1C[C@@H]2CN(C)C[C@@H]2C1	< 50 nM
COc1cc2c(Nc3ccc(Cl)c(Cl)c3)ncnc2cc1OCc1csc([C@@H]2CCCN2)n1	< 50 nM
COc1cc2c(Nc3ccc(Cl)c(Cl)c3)ncnc2cc1OCC1CN(CC=C(C)C)CCO1 (centres undefined)	< 50 nM
COc1cc2c(Nc3ccc(Cl)c(Cl)c3)ncnc2cc1OCC1CN(Cc2ccc(F)cc2)CCO1 (centres undefined)	< 50 nM
COc1cc2c(Nc3ccc(Cl)c(Cl)c3Cl)ncnc2cc1O[C@H]1CO[C@H]2[C@@H]1OC[C@@H]2OC	< 50 nM
COc1cc2c(Nc3ccc(Cl)c(Cl)c3)ncnc2cc1OCC1CN(C2CCOCC2)CCO1 (centres undefined)	< 50 nM
COc1cc2c(Nc3ccc(Cl)c(Cl)c3)ncnc2cc1OCC1CNCC(C)(C)O1 (centres undefined)	< 50 nM
COc1cc2c(Nc3ccc(Br)cc3F)ncnc2cc1OCC1CCN(C(N)=NC#N)CC1	< 50 nM
COc1cc2c(Nc3cc(Cl)c(Br)cc3F)ncnc2cc1OCC1CO[C@@H]2[C@@H](OC)CO[C@H]12 (some centres undefined)	< 50 nM
CCCN1CCOC(COc2cc3ncnc(Nc4ccc(Cl)c(Cl)c4)c3cc2OC)C1 (centres undefined)	< 50 nM
COc1cc2c(Nc3ccc(N4CCN(C)CC4)c(Cl)c3Cl)ncnc2cc1O[C@H]1CO[C@@H]2[C@H]1OC[C@@H]2F	< 50 nM
COc1cc2c(Nc3ccc(C)c(Br)c3)ncnc2cc1O[C@@H]1CO[C@@H]2[C@H]1OC[C@H]2F	< 50 nM
COc1cc2c(Nc3ccc(Cl)c(Cl)c3)ncnc2cc1OCC1CN(C)CCN1C (centres undefined)	< 50 nM
CCCCCCCCN1CCOC(COc2cc3ncnc(Nc4ccc(Cl)c(Cl)c4)c3cc2OC)C1 (centres undefined)	< 50 nM
COc1cc2c(Nc3ccc(Cl)c(Cl)c3)ncnc2cc1OCc1nc(N2CCNCC2)no1	< 50 nM
COc1cc2c(Nc3ccc(Cl)c(Cl)c3)ncnc2cc1OCCC1CN(C)CC(C)(C)O1 (centres undefined)	< 50 nM
